Reference: PubChem BioAssay (NCI)
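1) Cells in 96-well plates. 2) Compound, 48 h, 5 concentrations. 3) Linear interpolation between surrounding doses. 4) Unreached endpoint = highest concentration. GI50 is the concentration that inhibits growth by half. TGI: total growth inhibition.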

What was measured:
Assay in all cases: NCI tumour cell line growth inhibition, 48 h
786-0 renal = tested on: 786-0 renal
DU-145 prostate = tested on: DU-145 prostate
IGROV1 ovarian = tested on: IGROV1 ovarian
MCF7 breast = tested on: MCF7 breast
NCI-H460 lung = tested on: NCI-H460 lung
OVCAR-3 ovarian = tested on: OVCAR-3 ovarian
CCRF-CEM leukemia = tested on: CCRF-CEM leukemia
HCC-2998 colon = tested on: HCC-2998 colon
HCT-116 colon = tested on: HCT-116 colon
HOP-62 NSCLC = tested on: HOP-62 NSCLC

## CCOP(=O)(OCC)C(NC(c1ccccc1)c1ccccc1)c1ccsc1 (stereo not drawn)
786-0 renal
  GI50: 17200 nM
  TGI: 31.4 µM
DU-145 prostate
  GI50: 19100 nM
  TGI: 35.5 µM
IGROV1 ovarian
  GI50: 37600 nM
  TGI: > 100 µM
MCF7 breast
  GI50: 24.2 µM
  TGI: > 100 µM
NCI-H460 lung
  GI50: 18.7 µM
  TGI: 53.7 µM
OVCAR-3 ovarian
  GI50: 16100 nM
  TGI: 32.2 µM

## CC(Oc1ccc2c(=O)cc(-c3ccccc3)oc2c1)C(=O)O (stereo not drawn)
786-0 renal
  TGI: > 100 µM
CCRF-CEM leukemia
  TGI: > 100 µM
HCC-2998 colon
  TGI: > 100 µM
HCT-116 colon
  TGI: > 100 µM
HOP-62 NSCLC
  TGI: > 100 µM
IGROV1 ovarian
  TGI: > 100 µM
NCI-H460 lung
  TGI: > 100 µM
OVCAR-3 ovarian
  TGI: > 100 µM

## CCCCCCCCCCCCCP(=O)(OC)OC
786-0 renal
  TGI: 33.7 µM
CCRF-CEM leukemia
  TGI: 38.8 µM
HCC-2998 colon
  TGI: 36 µM
HCT-116 colon
  TGI: 33.8 µM
HOP-62 NSCLC
  TGI: 28.2 µM
IGROV1 ovarian
  TGI: 35.5 µM
NCI-H460 lung
  TGI: 31.3 µM
OVCAR-3 ovarian
  TGI: 34.6 µM

## O=C1C(c2ccccc2)=[N+]([O-])c2cc([N+](=O)[O-])ccc21
786-0 renal
  TGI: 63.3 µM
CCRF-CEM leukemia
  TGI: 40.5 µM
HCC-2998 colon
  TGI: 77.4 µM
HCT-116 colon
  TGI: 53.4 µM
HOP-62 NSCLC
  TGI: > 100 µM
IGROV1 ovarian
  TGI: 53.5 µM
NCI-H460 lung
  TGI: 56.8 µM
OVCAR-3 ovarian
  TGI: 36.8 µM

## C=C1CCCC2OC(OC)CCC12 (stereo not drawn)
786-0 renal
  TGI: > 100 µM
CCRF-CEM leukemia
  TGI: > 100 µM
HCC-2998 colon
  TGI: > 100 µM
HCT-116 colon
  TGI: > 100 µM
HOP-62 NSCLC
  TGI: > 100 µM
IGROV1 ovarian
  TGI: > 100 µM
NCI-H460 lung
  TGI: > 100 µM
OVCAR-3 ovarian
  TGI: > 100 µM

## O=C(CO)CC(=O)C(=O)Nc1cccc(C(F)(F)F)c1
786-0 renal
  TGI: > 100 µM
HCC-2998 colon
  TGI: > 100 µM
HCT-116 colon
  TGI: > 100 µM
HOP-62 NSCLC
  TGI: > 100 µM
IGROV1 ovarian
  TGI: > 100 µM
NCI-H460 lung
  TGI: > 100 µM
OVCAR-3 ovarian
  TGI: > 100 µM

## CC(=O)CCn1[nH]c(=O)c(Cl)c(Cl)c1=O
786-0 renal
  TGI: > 100 µM
CCRF-CEM leukemia
  TGI: > 100 µM
HCC-2998 colon
  TGI: > 100 µM
HCT-116 colon
  TGI: > 100 µM
HOP-62 NSCLC
  TGI: > 100 µM
IGROV1 ovarian
  TGI: > 100 µM
NCI-H460 lung
  TGI: > 100 µM
OVCAR-3 ovarian
  TGI: > 100 µM

## COc1ccc(C(=O)Nc2ccn(CCOC(=O)c3ccc(OC)cc3)c(=O)n2)cc1
786-0 renal
  TGI: > 100 µM
CCRF-CEM leukemia
  TGI: > 100 µM
HCT-116 colon
  TGI: > 100 µM
HOP-62 NSCLC
  TGI: > 100 µM
IGROV1 ovarian
  TGI: > 100 µM
NCI-H460 lung
  TGI: > 100 µM
OVCAR-3 ovarian
  TGI: > 100 µM

## COc1ccc2c(c1)C(=O)/C(=C/c1cccc(OCC(=O)c3ccc([N+](=O)[O-])cc3)c1)CO2
786-0 renal
  GI50: 2000 nM
  TGI: 4.83 µM
CCRF-CEM leukemia
  GI50: 2320 nM
DU-145 prostate
  GI50: 2730 nM
  TGI: 7.14 µM
HCT-116 colon
  GI50: 1330 nM
  TGI: 2.67 µM
HOP-62 NSCLC
  GI50: 2130 nM
  TGI: 5.35 µM
IGROV1 ovarian
  GI50: 1480 nM
  TGI: 3.86 µM
MCF7 breast
  GI50: 0.72 µM
  TGI: 3.68 µM
NCI-H460 lung
  GI50: 3.2 µM
  TGI: 11.6 µM
OVCAR-3 ovarian
  GI50: 1940 nM
  TGI: 3.72 µM

## CCCCCC1CC=CC(NC(=O)OCc2ccccc2)C1/C=C/CCCC1OCCO1 (stereo not drawn)
786-0 renal
  TGI: > 100 µM
CCRF-CEM leukemia
  TGI: > 100 µM
HCC-2998 colon
  TGI: > 100 µM
HCT-116 colon
  TGI: > 100 µM
HOP-62 NSCLC
  TGI: > 100 µM
IGROV1 ovarian
  TGI: > 100 µM
NCI-H460 lung
  TGI: > 100 µM
OVCAR-3 ovarian
  TGI: > 100 µM

## O=C1/C=C/[C@@H](O)[C@@H]2C[C@@H](O)C[C@H]2/C=C/CCC[C@H](CCc2ccc(NC(=S)Nc3ccc4c(c3)C(=O)OC43c4ccc(O)cc4Oc4cc(O)ccc43)cc2)O1
786-0 renal
  GI50: 262 nM
  TGI: 0.771 µM
CCRF-CEM leukemia
  GI50: 426 nM
  TGI: > 100 µM
DU-145 prostate
  GI50: 2810 nM
  TGI: > 100 µM
HCC-2998 colon
  GI50: 302 nM
HCT-116 colon
  GI50: 523 nM
  TGI: 4.95 µM
HOP-62 NSCLC
  GI50: 518 nM
  TGI: > 100 µM
IGROV1 ovarian
  GI50: 622 nM
  TGI: 2.69 µM
NCI-H460 lung
  GI50: 2.62 µM
  TGI: > 100 µM
OVCAR-3 ovarian
  GI50: 317 nM
  TGI: 0.862 µM
